# Earlier results as cited in patent US10561625B2, “Methods of treatment using sustained release sotalol formulations” (The Roshni Singh 2015 Trust, priority 2004, dated 2020).
# Where a name gives a salt, the structure may show the parent alone.
# Experiments:
# [1] = not given; remark: listed apart in the source
solubility in water,elimination (exclusively renal) half-life ([1]; administered twice daily) [h],peak plasma concentration (time) ([1]; after a dose of the current formulation) [h],mean elimination half-life ([1]; current formulation),bioavailability ([1]; in vivo) [%],"absorbed after oral ingestion ([1]; oral, no first-pass hepatic metabolism) [%]",plasma half-life ([1]; in vivo) [h],Structure (SMILES)
freely soluble in water,8 to 12,2 to 3,about 12 hours,100,100,,"CC(C)NCC(O)c1ccc(NS(C)(=O)=O)cc1 (racemic) [Sotalol, 4′-(2-isopropylaminoethyl-1-hydroxy) methanesulphonanilide hydrochloride]"
freely soluble in water,,,,,,2.5 to 9.5,COCCc1ccc(OCC(O)CNC(C)C)cc1 (centres unmarked) [Metoprolol]
